The text below walks through data of patent US20220268782A1, “METHODS FOR PREDICTING AND TREATING CARDIAC DYSFUNCTION” (INSERM (INSTITUT NATIONAL DE LA SANTÉ EAT DE LA RECHERCHE …, priority 2019, published 2022).

Series [1] has as its system 11 month-old WT mice. Description: In vivo intraperitoneal BH4 treatment of 11-month-old WT mice: cardiac phenotyping, plasma and hepatic PA. The procedure:
PA in a dose of 200 mg/kg twice a day or vehicle (1×PBS) was subcutaneously administered to 11 month-old WT mice (Janvier Labs, France) in vivo for a month. BH4 in a dose of 10 mg/kg/die 2×/die or vehicle (1×PBS with 10 mM sodium ascorbate and citric acid to pH 4.5) was intraperitoneally administered to 11 month-old WT mice in vivo over six weeks. General state of the mice (body weight & wellbeing) was closely monitored.
Data acquisition for a single cohort was performed by a single operator (JT or ER). Images were acquired from a parasternal position at the level of the papillary muscles using a 13-MHz linear-array transducer with a digital ultrasound system (Vivid 7, GE Medical System, Horton, Norway). Left ventricular dimensions and ejection fraction, anterior and posterior wall thicknesses were serially obtained from M-mode acquisition. Relative LV wall thickness (RWT) was defined as the sum of septal and posterior wall thickness over LV end-diastolic diameter, and LV mass was determined using the uncorrected cube assumption formula (LV mass=(AWTd+LVEDD+PWTd)^3−(LVEDD)^3). Peak systolic values of radial strain rate of the anterior and posterior wall were obtained using Tissue Doppler Imaging (TDI) as previously described.^2 TDI loops were acquired from parasternal view with a careful alignment with the radial component of the deformation' at a mean frame rate of 514 fps and a depth of 1 cm. The Nyquist velocity limit was set at 12 cm/s. Radial strain rate analysis was performed offline using the EchoPac Software (GE Medical Systems) blindly by a single operator (GD). Peak systolic of radial strain rate was computed from a region of interest positioned in the mid anterior wall and was measured over an axial distance of 0.6 mm. The temporal smoothing filters were turned off for all measurements. Because of the inevitable respiratory variability, we averaged peak systolic of radial strain rate on 8 consecutive cardiac cycles.
In vivo haemodynamic measurements were performed just before mice of indicated ages were sacrificed.' Haemodynamic evaluation was performed in mice placed on a homeothermic operating table in supine position under 1.5% isoflurane anesthesia with spontaneous breathing. A 1.4-Fr microcatheter (Millar Instruments, Houston, USA) was calibrated manually before each experiment, inserted via the right carotid artery into the aorta and subsequently advanced to the left ventricle. Data were collected after at least 10 min of baseline, using the lowest isoflurane concentration tolerated to ensure minimal cardiodepression during measurement of peak rates of isovolumetric pressure development (dP/dtmax) and pressure decay (dP/dtmin). The microcatheter was then withdrawn to the aorta for measurement of systolic and diastolic pressure. Data were analyzed using the IOX software (EMKA, France).
All mice were weighed, euthanized by cervical dislocation, followed by rapid excision of the organs of interest. The heart was cannulated through the aorta for perfusion with ice-cold 1×PBS, then blotted and weighed. The heart was cut in half perpendicular to its axis: the apical two-third was snap-frozen in liquid nitrogen, whilst the basic one-third was recannulated through the aorta, perfused with 10% formalin for histology. Hearts were kept in formalin at 4° C. for at least 24-48 hours before embedding. Snap-frozen tissues were kept at −80° C., until they were powdered using a mortar and pestle cooled with liquid nitrogen and collected as aliquots. Livers and kidneys were processed in a similar manner.
Formalin-fixed organs were embedded in paraffin. Cross-sections were cut into 7 μm thickness using a rotary microtome (Leica). To assess cardiac fibrosis, Sirius red staining was performed, followed by dehydration and mounting with Eukitt quick-hardening mounting medium (Sigma). […]

Series [2] has as its system C2C12 myoblasts. Description: Oxidative stress in C2C12 cells (CellROX cytosolic superoxide, MitoSOX mitochondrial superoxide, GSH). The format is cell-based. Here is the method:
C2C12 (ATCC® CRL-1772™) myoblasts maintained in DMEM supplemented with L-glutamine (2 mM), penicillin/streptomycin (1%) and 5% fetal bovine serum (FBS) were seeded either at a density of 5×10^4 cells (<50%) per well in 24-well plates or 10^4 cells in 4-well chamber slides. Cells were with L-phenylalanine (1-10 mM)+BH4 (10 μM) and incubation with increasing concentrations of N-acetylcysteine (0.5, 2.5, 5 mM) vs. vehicle overnight as indicated. Cells were analysed for oxidative stress with MitoSOX™ (mitochondrial superoxide; 5 μM, ThermoFisher Scientific), CellROX™ (cytosolic superoxide; 5 μM, ThermoFisher Scientific), gene or protein expression, or various metabolites (see below).
Levels of reduced glutathione (GSH; ThermoFisher), phenylalanine (BioVision) and tyrosine (BioVision) were determined from cells or plasma, with respective agents/kits following the manufacturer's recommendations. Specifically, GSH levels were estimated with the aid of ThiolTracker™ Violet fluorescent probe (ThermoFisher). Plasma and liver phenylalanine levels were determined using an enzyme-coupled, fluorometric method (BioVision). Briefly, samples were deproteinized via trichloroacetate precipitation, neutralised, tyrosinase-treated (to remove tyrosine that may interfere) and diluted to fit in the standard curve. Fluorescence reading took place at 587 nm after excitation at 535 nm. Levels of tyrosine in cells or conditioned media were determined after deproteinization using 10 kDa cut-off columns with an enzyme-coupled, colorimetric method with reading at 491 nm (BioVision).

Molecules are shown by their SMILES.

As for `CC(O)C(O)C1CNc2nc(N)[nH]c(=O)c2N1` (centres unmarked) [BH4, 2-amino-6-(1,2-dihydroxypropyl)-5,6,7,8-tetrahydro-3H-pteridin-4-one], in series [1] (11-month-old WT mice, BH4 10 mg/kg i.p. twice a day over 6 weeks, FIG. 4a), the “plasma PA” value is reported as “reduce plasma PA to young levels”. Also, in series [1] (11-month-old WT mice, BH4 10 mg/kg i.p. twice a day over 6 weeks, FIG. 4f), the systemic arterial pressures entry is listed as “without lowering”. In addition, the “interstitial fibrosis (Sirius red, vimentin)” value in series [1] (11-month-old WT mice, BH4 10 mg/kg i.p. twice a day over 6 weeks, FIG. 4g-h) was “normalised”. For the same molecule, in series [1] (11-month-old WT mice, BH4 10 mg/kg i.p. twice a day over 6 weeks, FIG. 4j), the “senescent myocardial expression of p21, Pah, Gch1 & 2-SC” value was “suppressing”. In addition, the “HW/TL (heart weight to tibia length)” value in series [1] (11-month-old WT mice, BH4 10 mg/kg i.p. twice a day over 6 weeks, to young values, FIG. 4b) is recorded as “ameliorated”. For the same molecule, in series [1] (11-month-old WT mice, BH4 10 mg/kg i.p. twice a day over 6 weeks, to young values, FIG. 4c-d), the “contractility (systolic strain rate, dP/dtmax)” value was “ameliorated”. In addition, in series [1] (11-month-old WT mice, BH4 10 mg/kg i.p. twice a day over 6 weeks, to young values, FIG. 4e), the “relaxation (dP/dtmin)” value is recorded as “ameliorated”. The “Pah in liver (immunofluorescence)” value in series [1] (12.5-month-old WT mice, BH4 vs. vehicle, FIG. 4s) is “re-expressed”. The “hepatic PA content” value in series [1] (12.5-month-old WT mice, BH4 vs. vehicle, FIG. 4t) was “reduced”. Also, the “course of drug treatment (body weight & wellbeing monitored)” value in series [1] (BH4 10 mg/kg twice a day intraperitoneally over six weeks) is “completed as scheduled without incidents”. Also, the “hepatic Pah activity” value in series [1] (BH4-treated WT mice, data not shown) was “improved”. In series [2] (PA plus co-treatment (BH4 10 μM or NAC), FIG. 1f), the “cytosolic superoxide levels under PA treatment” value was “normalized”. Besides, the “reduced glutathione (GSH) levels under PA treatment” value in series [2] (PA plus co-treatment, data not shown) was “restored normal”.
Regarding `N[C@@H](Cc1ccccc1)C(=O)O` [PA, (S)-2-Amino-3-phenylpropanoic acid], the “cytosolic superoxide levels (CellROX probe)” value in series [2] (as a function of PA concentration, FIG. 1e) is given as “incrementally increased”.
